From patent US9708315B2, “1,2,4-triazolo[4,3-a]pyridine compounds and their use as positive allosteric modulators of MGLUR2 receptors” (Janssen Pharmaceutica NV, priority 2013, dated 2017)

Key:
[1] = target: T1, human mGlu2 receptor (Homo sapiens, UniProt Q14416); assay: [35S]GTPγS binding assay, mGluR2 PAM; assay type: biochemical; conditions: in presence of glutamate at EC20; EC50 expressed in M; read-out: GTPγS - hmGluR2 PAM pEC50 (converted)
T1 construct: expressed in transfected cells; host or cells: CHO cells
T1 sequence (Q14416 19-872): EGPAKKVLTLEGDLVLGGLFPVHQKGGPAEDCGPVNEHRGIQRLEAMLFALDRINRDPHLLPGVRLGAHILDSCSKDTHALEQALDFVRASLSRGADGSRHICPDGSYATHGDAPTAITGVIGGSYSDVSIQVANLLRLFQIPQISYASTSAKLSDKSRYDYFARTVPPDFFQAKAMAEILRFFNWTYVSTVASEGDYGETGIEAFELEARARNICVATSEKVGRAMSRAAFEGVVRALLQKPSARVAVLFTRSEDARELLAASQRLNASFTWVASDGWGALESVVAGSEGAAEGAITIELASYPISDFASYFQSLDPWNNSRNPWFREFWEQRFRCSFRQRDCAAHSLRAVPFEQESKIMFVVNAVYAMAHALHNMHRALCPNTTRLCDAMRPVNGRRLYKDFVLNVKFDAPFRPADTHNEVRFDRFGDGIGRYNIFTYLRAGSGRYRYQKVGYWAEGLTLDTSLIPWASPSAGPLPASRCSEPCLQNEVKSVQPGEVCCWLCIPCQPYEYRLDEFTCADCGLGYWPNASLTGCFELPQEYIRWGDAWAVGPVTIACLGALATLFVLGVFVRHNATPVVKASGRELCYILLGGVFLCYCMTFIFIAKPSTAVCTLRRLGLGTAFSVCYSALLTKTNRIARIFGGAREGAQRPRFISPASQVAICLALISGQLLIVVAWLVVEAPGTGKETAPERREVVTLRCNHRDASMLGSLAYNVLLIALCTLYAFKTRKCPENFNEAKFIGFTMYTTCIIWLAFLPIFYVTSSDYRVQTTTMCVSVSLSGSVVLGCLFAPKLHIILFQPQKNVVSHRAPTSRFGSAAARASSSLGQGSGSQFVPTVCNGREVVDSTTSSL
Protocol: [^35S]GTPγS Binding Assay
The [^35S]GTPγS binding assay is a functional membrane-based assay used to study G-protein coupled receptor (GPCR) function whereby incorporation of a non-hydrolysable form of GTP, [^35S]GTPγS (guanosine 5′-triphosphate, labelled with […] ^35S), is measured.
Cells were then collected by scraping in PBS and cell suspension was centrifuged (10 min at 4000 RPM in benchtop centrifuge). Supernatant was discarded and pellet gently resuspended in 50 mM Tris-HCl, pH 7.4 by mixing with a vortex and pipetting up and down. The suspension was centrifuged at 16,000 RPM (Sorvall RC-5C plus rotor SS-34) for 10 minutes and the supernatant discarded. The pellet was homogenized in 5 mM Tris-HCl, pH 7.4 using an ultra-turrax homogenizer and centrifuged again (18,000 RPM, 20 min, 4° C.). The final pellet was resuspended in 50 mM Tris-HCl, pH 7.4 and stored at −80° C. in appropriate aliquots before use. Protein concentration was determined by the Bradford method (Bio-Rad, USA) with bovine serum albumin as standard.
Measurement of mGluR2 positive allosteric modulatory activity of test compounds was performed as follows. Test compounds and glutamate were diluted in assay buffer containing 10 mM HEPES acid, 10 mM HEPES salt, pH 7.4, 100 mM NaCl, 3 mM MgCl2 and 10 μM GDP. Human mGlu2 receptor-containing membranes were thawed on ice and diluted in assay buffer supplemented with 14 μg/ml saponin. Membranes were pre-incubated with compound alone or together with a predefined (˜EC20) concentration of glutamate (PAM assay) for 30 min at 30° C. After addition of [^35S]GTPγS (f c. 0.1 nM), assay mixtures were shaken briefly and further incubated to allow [^35S]GTPγS incorporation on activation (30 minutes, 30° C.). Final assay mixtures contained 7 μg of membrane protein in 10 mM HEPES acid, 10 mM HEPES salt, pH 7.4, 100 mM NaCl, 3 mM MgCl2, 10 μM GDP and 2 μg/ml saponin. […] Filters were washed 6 times with ice-cold 10 mM NaH2PO4/10 mM Na2HPO4, pH 7.4. Filters were then air-dried, and 40 μl of liquid scintillation cocktail (Microscint-O) was added to each well. Membrane-bound radioactivity was counted in a Microplate Scintillation and Luminescence Counter from Perkin Elmer.
The concentration-response curves of representative compounds of the present invention—obtained in the presence of EC20 of mGluR2 agonist glutamate to determine positive allosteric modulation (PAM)—were generated using the Lexis software interface (developed at J&J). Data were calculated as % of the control glutamate response, defined as the maximal response that is generated upon addition of glutamate alone. Sigmoid concentration-response curves plotting these percentages versus the log concentration of the test compound were analyzed using non-linear regression analysis. The concentration producing half-maximal effect is then calculated as EC50.
The pEC50 values below were calculated as the −log EC50, when the EC50 is expressed in M. Emax is defined as relative maximal effect (i.e. maximal % effect relative to the control glutamate response).
All compounds were tested in presence of mGluR2 agonist glutamate at a predetermined EC20 concentration, to determine positive allosteric modulation. pEC50 values were calculated from a concentration-response experiment of at least 8 concentrations.

[2] = tested on: Adult male CF No 1 albino mice; assay: Minimal motor impairment (rotarod) in mice; assay type: in vivo
Protocol: Test compounds were administered using an optimal fluid volume to body fluid ratio. Test compounds were administered to mice in a volume of 0.01 ml/g of body weight (White, H. S., et al., General principles: Experimental selection, quantification, and evaluation of antiepileptic drugs, in Antiepileptic Drugs, Fourth Edition, R. H. Levy, R. H. Mattson, and B. S. Meldrum, Editors. 1995, Raven Press, Ltd.: New York. p. 99-110). The test compound number 6 was administered orally (p.o.). For each of the tests performed on the test compound, a 40% Hydroxypropyl-β-cyclodextrin (Hp-β-CD) stock solution was first prepared and utilized for formulating the test compound number 6 at the desired concentrations for testing via the oral (p.o.) route. Final compound concentrations were administered as suspensions in 20% Hp-β-CD. A 20% Hp-β-CD solution was used for the vehicle groups.
Adult male CF No 1 albino mice (26-35 g) were obtained from Charles River, Portage, Mich. The animals were maintained on an adequate diet (Prolab RMH 3000) and allowed free access to food and water, except during the short time they were removed from their cage for testing. Animals newly received in the laboratory were allowed sufficient time to correct for possible food and water restriction incurred during transit before being employed in testing. All mice were housed in plastic cages in specially constructed rooms with controlled humidity, exchange of air and controlled lighting (12 hours on-12 hours off). The animals were housed, fed, and handled in a manner consistent with the recommendations in the National Council Publication, “Guide for the Care and Use of Laboratory animals.” Experimental Design General Methods Minimal Motor Impairment (MMI):
Acute MMI was assessed by a combination of direct observations of the animal for overt symptoms of the animal's neurological or muscular function. In mice, the rotarod procedure was used to disclose minimal muscular or neurological impairment. When a mouse is placed on a rod that rotates at a speed of 6 rpm, the animal can maintain its equilibrium for long periods of time. The animal was considered toxic if it fell off this rotating rod three times during a 1 min period.

C[C@H](Oc1ccc(F)cc1F)c1ccn2c(CC3CC3)nnc2c1C(F)(F)F [Compound 6, 3-(Cyclopropylmethyl)-7-[(1S)-1-(2,4-difluorophenoxy)ethyl]-8-(trifluoromethyl)[1,2,4]triazolo[4,3-a]pyridine]
0/8: # rotarod motor impairment/# tested ([2]; dose-response, 6 Hz 32 mA group, 2.5 mg/kg p.o., 0.5 h) | # rotarod motor impairment/# tested ([2]; dose-response, 6 Hz 32 mA group, 5 mg/kg p.o., 0.5 h) | # rotarod motor impairment/# tested ([2]; dose-response, 6 Hz 32 mA group, 10 mg/kg p.o., 0.5 h) | # rotarod motor impairment/# tested ([2]; dose-response, 6 Hz 32 mA group, 20 mg/kg p.o., 0.5 h) | # rotarod motor impairment/# tested ([2]; dose-response, 6 Hz 44 mA group, 10 mg/kg p.o., 0.5 h) | # rotarod motor impairment/# tested ([2]; dose-response, 6 Hz 44 mA group, 15 mg/kg p.o., 0.5 h) | # rotarod motor impairment/# tested ([2]; dose-response, 6 Hz 44 mA group, 20 mg/kg p.o., 0.5 h) | # rotarod motor impairment/# tested ([2]; dose-response, 6 Hz 44 mA group, 40 mg/kg p.o., 0.5 h)
40.7 nM: EC50 [1]
0/4: # rotarod motor impairment/# tested ([2]; 10 mg/kg p.o., 0.25 h) | # rotarod motor impairment/# tested ([2]; 10 mg/kg p.o., 0.5 h) | # rotarod motor impairment/# tested ([2]; 10 mg/kg p.o., 1 h) | # rotarod motor impairment/# tested ([2]; 10 mg/kg p.o., 2 h) | # rotarod motor impairment/# tested ([2]; 10 mg/kg p.o., 4 h) | # rotarod motor impairment/# tested ([2]; 20 mg/kg p.o., 0.25 h) | # rotarod motor impairment/# tested ([2]; 20 mg/kg p.o., 0.5 h) | # rotarod motor impairment/# tested ([2]; 20 mg/kg p.o., 1 h) | # rotarod motor impairment/# tested ([2]; 20 mg/kg p.o., 2 h) | # rotarod motor impairment/# tested ([2]; 20 mg/kg p.o., 4 h)
